Like-named read-outs stand apart in the source and are kept apart here.
Experiments:
[1] = tested on: PKB Ser473 phosphorylation in Rat1-myr-HA-p110 beta cells; test: Reverse protein array, PKB Ser473 phosphorylation in Rat1-myr-HA-p110 beta cells; format: cell-based; conditions: Rattus norvegicus, 0.5 h, 30 minutes compound incubation, read-out: p-PKB/IC50_beta
[2] = molecular target: T1, mTOR (Homo sapiens, UniProt P42345); test: Biochemical assay for m-TOR by TR-FRET
T1 construct: purchased Invitrogen Corporation (Carlsbad/Calif., USA) PV4753
Summary of the method: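 mTOR (0.5 nM) phosphorylates GFP-4EBP1 (400 nM) with 8 μM ATP at rt in 50 mM HEPES pH 7.5, 10 mM MnCl2, 50 mM NaCl, 1 mM EGTA, 1 mM DTT; compounds 0.003–10 μM final. EDTA stop with Tb-anti-p4EBP1[pT46] antibody (0.5 nM); TR-FRET read after 15 min against no-enzyme and vehicle controls.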

[3] = tested on: PKB Ser473 phosphorylation in Rat1-myr-HA-p110 alpha cells; test: Reverse protein array, PKB Ser473 phosphorylation in Rat1-myr-HA-p110 alpha cells; format: cell-based; conditions: Rattus norvegicus, 0.5 h, 30 minutes compound incubation, read-out: p-PKB/IC50_alpha

T1 sequence (P42345 1360-2549 limits assumed): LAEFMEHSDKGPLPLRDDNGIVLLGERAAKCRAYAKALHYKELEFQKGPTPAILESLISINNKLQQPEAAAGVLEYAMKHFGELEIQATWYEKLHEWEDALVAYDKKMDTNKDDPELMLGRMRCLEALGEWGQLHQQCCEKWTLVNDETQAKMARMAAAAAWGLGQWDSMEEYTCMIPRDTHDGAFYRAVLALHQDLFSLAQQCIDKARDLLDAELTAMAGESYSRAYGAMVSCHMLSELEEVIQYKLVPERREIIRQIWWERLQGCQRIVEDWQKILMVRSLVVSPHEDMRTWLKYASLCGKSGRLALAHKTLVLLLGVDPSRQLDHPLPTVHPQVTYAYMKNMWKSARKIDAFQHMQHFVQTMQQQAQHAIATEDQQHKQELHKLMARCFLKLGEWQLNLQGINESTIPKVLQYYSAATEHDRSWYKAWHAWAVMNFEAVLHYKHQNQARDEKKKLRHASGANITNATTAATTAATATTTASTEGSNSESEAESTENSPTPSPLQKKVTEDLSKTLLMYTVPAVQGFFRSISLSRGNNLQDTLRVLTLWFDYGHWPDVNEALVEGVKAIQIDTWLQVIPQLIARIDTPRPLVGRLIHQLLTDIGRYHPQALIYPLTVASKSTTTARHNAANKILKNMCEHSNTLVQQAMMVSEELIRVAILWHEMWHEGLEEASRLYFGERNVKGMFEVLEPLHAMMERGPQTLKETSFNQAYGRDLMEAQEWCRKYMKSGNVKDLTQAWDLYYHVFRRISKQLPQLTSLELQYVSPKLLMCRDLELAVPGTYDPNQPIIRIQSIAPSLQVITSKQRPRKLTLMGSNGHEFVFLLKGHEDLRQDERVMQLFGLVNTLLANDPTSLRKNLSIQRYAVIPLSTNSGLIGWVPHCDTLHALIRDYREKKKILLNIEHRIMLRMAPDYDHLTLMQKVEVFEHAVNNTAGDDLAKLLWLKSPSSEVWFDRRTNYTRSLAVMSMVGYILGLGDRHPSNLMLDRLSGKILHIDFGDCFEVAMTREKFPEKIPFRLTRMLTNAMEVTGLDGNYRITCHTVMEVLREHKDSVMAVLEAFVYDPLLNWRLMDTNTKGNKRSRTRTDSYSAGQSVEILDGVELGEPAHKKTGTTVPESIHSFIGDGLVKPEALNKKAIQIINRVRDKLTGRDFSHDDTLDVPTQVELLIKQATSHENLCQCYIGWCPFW

Row | SMILES | IC50 [1] [nM] | IC50 ([2]; read-out: mTOR/IC50) [nM] | IC50 [3] [nM] | IC50 ([2]; read-out: EPK_mTOR/IC50) [nM]
1 | COc1ncccc1-n1c(=O)n(C)c2cnc3ccc(-c4cnc(N)c(C(F)(F)F)c4)cc3c21 [Example 1.3, 8-(6-Amino-5-trifluoromethyl-pyridin-3-yl)-1-(2-methoxy-pyridin-3-yl)-3-methyl-1,3-dihydro-imidazo[4,5-c]quinolin-2-one] | 13.9 | 9 | 6.94 | –
2 | Cc1nc(N2CC(F)(F)C(F)(F)C2)ccc1-n1c(=O)n(C)c2cnc3ccc(-c4cncc(C(C)(C)O)c4)cc3c21 [Example 35.1, 8-[5-(1-Hydroxy-1-methyl-ethyl)-pyridin-3-yl]-3-methyl-1-[2-methyl-6-(3,3,4,4-tetrafluoro-pyrrolidin-1-yl)-pyridin-3-yl]-1,3-dihydro-imidazo[4,5-c]quinolin-2-one] | 27.9 | – | 14.6 | 68
3 | CNc1ccc(-c2ccc3ncc4c(c3c2)n(-c2ccc(N3CCCC3)nc2C)c(=O)n4C)cn1 [Example 25.1, 3-Methyl-8-(6-methylamino-pyridin-3-yl)-1-(2-methyl-6-pyrrolidin-1-yl-pyridin-3-yl)-1,3-dihydro-imidazo[4,5-c]quinolin-2-one] | 10.7 | – | 11.5 | 34
4 | CNc1ccc(-c2ccc3ncc4c(c3c2)n(-c2cccnc2OC)c(=O)n4C)cn1 [Example 1.4, 1-(2-Methoxy-pyridin-3-yl)-3-methyl-8-(6-methylamino-pyridin-3-yl)-1,3-dihydro-imidazo[4,5-c]quinolin-2-one] | 9.81 | 25 | 8.68 | –
5 | CCNc1cc(-c2ccc3ncc4c(c3c2)n(-c2ccc(OCCOC)nc2C)c(=O)n4C)cnc1C [Example 13.4, 8-(5-Ethylamino-6-methyl-pyridin-3-yl)-1-[6-(2-methoxy-ethoxy)-2-methyl-pyridin-3-yl]-3-methyl-1,3-dihydro-imidazo[4,5-c]quinolin-2-one] | < 4.57 | – | < 4.57 | 6
6 | Cc1nc(N2CC(F)(F)C2)ccc1-n1c(=O)n(C)c2cnc3ccc(-c4cncc(C(C)(C)O)c4)cc3c21 [Example 24.2, 1-[6-(3,3-Difluoro-azetidin-1-yl)-2-methyl-pyridin-3-yl]-8-[5-(1-hydroxy-1-methyl-ethyl)-pyridin-3-yl]-3-methyl-1,3-dihydro-imidazo[4,5-c]quinolin-2-one] | 30.7 | – | 17.5 | 48
7 | COCCN(C)c1ccc(-n2c(=O)n(C)c3cnc4ccc(-c5cnc6c(ccn6C)c5)cc4c32)c(C)n1 [Example 15.7, 1-{6-[(2-Methoxy-ethyl)-methyl-amino]-2-methyl-pyridin-3-yl}-3-methyl-8-(1-methyl-1H-pyrrolo[2,3-b]pyridin-5-yl)-1,3-dihydro-imidazo[4,5-c]quinolin-2-one] | 24.4 | – | 9.6 | 75

More lines, now with the values ahead:

Row | IC50 [1] [nM] | IC50 ([2]; read-out: mTOR/IC50) [nM] | IC50 [3] [nM] | IC50 ([2]; read-out: EPK_mTOR/IC50) [nM] | SMILES
8 | < 4.57 | – | 5 | 14 | CNc1ccc(-c2ccc3ncc4c(c3c2)n(-c2ccc(OCCOC)nc2C)c(=O)n4C)cn1 [Example 13.3, 1-[6-(2-Methoxy-ethoxy)-2-methyl-pyridin-3-yl]-3-methyl-8-(6-methylamino-pyridin-3-yl)-1,3-dihydro-imidazo[4,5-c]quinolin-2-one]
9 | 167 | – | 90.2 | 900 | COCC(=O)Nc1ccc(-n2c(=O)n(C)c3cnc4ccc(-c5cncc(OC(C)C)c5)cc4c32)c(C)n1 [Example 20.5, N-{5-[8-(5-Isopropoxy-pyridin-3-yl)-3-methyl-2-oxo-2,3-dihydro-imidazo[4,5-c]quinolin-1-yl]-6-methyl-pyridin-2-yl}-2-methoxy-acetamide]
10 | 212 | – | 31.1 | 80 | Cc1nc(F)ccc1-n1c(=O)n(C)c2cnc3ccc(-c4cnc(N)c(CO)c4)cc3c21 [Example 7.17, 8-(6-Amino-5-hydroxymethyl-pyridin-3-yl)-1-(6-fluoro-2-methyl-pyridin-3-yl)-3-methyl-1,3-dihydro-imidazo[4,5-c]quinolin-2-one]
11 | 108 | 544 | 54.9 | – | Cc1cccnc1-n1c(=O)n(C)c2cnc3ccc(-c4cnc5ccccc5c4)cc3c21 [Example 3.8, 3-Methyl-1-(3-methyl-pyridin-2-yl)-8-quinolin-3-yl-1,3-dihydro-imidazo[4,5-c]quinolin-2-one]
12 | 27.9 | – | 12.3 | 120 | CCOc1ccc(-c2ccc3ncc4c(c3c2)n(-c2ccc(N(C)CCOC)nc2C)c(=O)n4C)cn1 [Example 15.3, 8-(6-Ethoxy-pyridin-3-yl)-1-{6-[(2-methoxy-ethyl)-methyl-amino]-2-methyl-pyridin-3-yl}-3-methyl-1,3-dihydro-imidazo[4,5-c]quinolin-2-one]
13 | 81.6 | – | 27.7 | 17 | COCc1ncc(-c2ccc3ncc4c(c3c2)n(-c2ccc(OC)nc2OC)c(=O)n4C)cc1OC [Example 8.12, 1-(2,6-Dimethoxy-pyridin-3-yl)-8-(5-methoxy-6-methoxymethyl-pyridin-3-yl)-3-methyl-1,3-dihydro-imidazo[4,5-c]quinolin-2-one]
